Holding throughout (experiment): Antitumor bioactivity evaluation, breast cancer cells (ATPlite)
The test system of one experiment is MDA-MB-361. Type of experiment: cell-based. As to conditions: Homo sapiens, test sample 5 μM, 72 hours, read-out: Inhibitory Rate % MDA-MB-361. The procedure:
(§1) Antitumor bioactivity evaluation of the compounds of Examples according to the method described below
(§2) Cells plating: a 100 mm culture dish with overgrown adherent cells was digested with 1 ml 0.25% trypsin (GIBCO) at 37° C. for 5 min, and the reaction was terminated with 2 ml culture medium (containing 10% FBS, GIBCO). The cells were scattered and collected, after counting, diluted to 1×10^5 cells/ml, and seeded into a 96-well plate at 50 μl/well, 5000 cells/well, excluding the peripheral circle of wells in which no cell was added, but PBS was added, 60 wells in total, and then incubated at 37° C. for 24 hours for adhering.
(§3) Addition of the compound and lapatinib: the test sample was diluted to a final concentration of 5 μM, and the culture medium with the corresponding compound solvent concentration was filled in the control well, the compound solvent concentration was kept consistent in each well, 5 parellel wells were set for each concentration, 25 μl each well, 25 μl culture medium (in combined group, 25 μl lapatinib was added till a final concentration of 1 μM) supplemented, followed by incubation at 37° C. for 72 hours.
(§4) Test after incubation at 37° C. for 72 hours: 50 μL of ATPlite kit substrate solution was added in each well, and vibrated for 3 min, followed by placing aside in darkness for 10 min, and then supernatant 100 μl/well was taken and placed on aluminescence test plate; the luminescence test plate that has been fully incubated was placed in a luminescence test instrument, to read luminescence value.
(§5) 1. Cell survival rate (%)=Experimental group RLU/control group RLU×100%. The experimental data were subjected to data analysis and processing by utilizing GraphPad software.

The subject of the next experiment is SK/Lap^R1.0. Type of experiment: cell-based. Conditions: Homo sapiens; test sample 5 μM, 72 hours; read-out: Inhibitory Rate % SKLap^R1.0. On the procedure: as §1, §2, §3, §4, §5
Another experiment concerns BT474. Type of experiment: cell-based. As to conditions: Homo sapiens, BT-474; test sample 5 μM, 72 hours; read-out: Inhibitory Rate % BT474. The procedure: as §1, §2, §3, §4, §5
The next experiment relates to SK-BR3. It is filed as cell-based. Conditions: Homo sapiens, SK-BR-3; test sample 5 μM, 72 hours; read-out: Inhibitory Rate % SK-BR3. The procedure: as §1, §2, §3, §4, §5
The next experiment has as its system MDA-MB-453. Type of experiment: cell-based. Conditions: Homo sapiens, test sample 5 μM, 72 hours, read-out: Inhibitory Rate % MDA-MB-453. On the procedure:
as §1, §2, §3, §4, §5

The next experiment deals with BT/Lap^R1.0. It is filed as cell-based, human. As to conditions: Homo sapiens; test sample 5 μM, 72 hours; read-out: Inhibitory Rate % BT/Lap^R1.0. On the procedure:
as §1, §2, §3, §4, §5

The structures appear in SMILES notation.

Turning to `CCOc1ncc(CN2CCC(N(C)Cc3cccc(Cl)c3)CC2)s1` [Example 1, N-methyl-N-m-chlorobenzyl-N-{1-[(2-ethoxythiazol-5-yl)methyl]piperidin-4-yl}amine], the inhibition at 5 µM in the experiment on MDA-MB-361 stood at 14.2%; in the experiment with SK/Lap^R1.0, 5.2%; in the experiment on BT474, 14.4%; in the experiment with SK-BR3 it was 16.7%; in the experiment with MDA-MB-453, 41.2%; with BT/Lap^R1.0, 12.5%.
Take `COc1nccc(N2CCC(N(C)Cc3cc(Cl)ccc3Cl)CC2)n1` [Example 52, N-methyl-N-(2,5-dichlorobenzyl)-N-[1-(2-methoxypyrimidin-4-yl)piperidin-4-yl]amine]: the inhibition at 5 µM was determined as 64.1% with MDA-MB-361; 80.7% in the experiment with SK/Lap^R1.0; 74.2% in the experiment on BT474; 87.6% with SK-BR3; 68.7% in the experiment with MDA-MB-453; 68.1% with BT/Lap^R1.0.
Consider `CSc1ncc(CN2CCC(N(C)Cc3c(F)cccc3Cl)CC2)s1` [Example 31, N-methyl-N-(2-fluoro-6-chlorobenzyl)-N-{1-[(2-methylthiothiazol-5-yl)methyl]piperidin-4-yl}amine], for which the inhibition at 5 µM in the experiment with MDA-MB-361 came out at 47.2%; with SK/Lap^R1.0, 4.5%; in the experiment on BT474, 49.5%; with SK-BR3, 9.2%; in the experiment on MDA-MB-453, 65.3%; with BT/Lap^R1.0 it was 59.9%.
In the case of `COc1cc(N2CCC(N(C)Cc3ccc(C#N)cc3)CC2)ncn1` [Example 66, N-methyl-N-(p-cyanobenzyl)-N-[1-(6-methoxypyrimidin-4-yl)piperidin-4-yl]amine], the inhibition at 5 µM with MDA-MB-361 worked out at 20.3%; in the experiment on SK/Lap^R1.0, 8.8%; in the experiment on BT474, 25.1%; in the experiment on SK-BR3, 17.3%; in the experiment on MDA-MB-453, 46.1%; in the experiment on BT/Lap^R1.0 it was 16.9%.
For `Cc1ccc(CN(C)C2CCN(Cc3cnc(Cl)s3)CC2)cc1` [Example 22, N-methyl-N-(4-methylbenzyl)-N-{[1-(2-chlorothiazol-5-yl)methyl]piperidin-4-yl}amine], the inhibition at 5 µM was determined as 10.9% in the experiment on MDA-MB-361; 8.4% in the experiment on SK/Lap^R1.0; 14.2% with BT474; 26.2% in the experiment with SK-BR3; 29.6% in the experiment with MDA-MB-453; 16% in the experiment on BT/Lap^R1.0.
For `CN(Cc1ccc(Cl)cc1Cl)C1CCN(Cc2cnc(Cl)s2)CC1` [Example 20, N-methyl-N-(2,4-dichlorobenzyl)-N-{[1-(2-chlorothiazol-5-yl)methyl]piperidin-4-yl}amine], the inhibition at 5 µM in the experiment with MDA-MB-361 amounted to 30.1%; in the experiment on SK/Lap^R1.0, 11.4%; in the experiment on BT474, 64.1%; in the experiment with SK-BR3, 47.1%; with MDA-MB-453 it was 60.8%; in the experiment with BT/Lap^R1.0, 61.8%.
`CSc1ncc(CN2CCC(N(C)Cc3cccc(F)c3)CC2)s1` [Example 27, N-methyl-N-(3-fluorobenzyl)-N-{[1-(2-methylthiothiazol-5-yl)methyl]piperidin-4-yl}amine]: the inhibition at 5 µM in the experiment with MDA-MB-361 came to 31.7%; in the experiment on SK/Lap^R1.0, 2.1%; with BT474, 26.3%; in the experiment on SK-BR3 it was 19.5%; in the experiment with MDA-MB-453, 44.2%; in the experiment on BT/Lap^R1.0, 19.8%.
On to `CCOc1ncc(CN2CCC(N(C)Cc3c(Cl)cccc3Cl)CC2)s1` [Example 9, N-methyl-N-(2,6-dichlorobenzyl)-N-{[1-(2-ethoxythiazol-5-yl)methyl]piperidin-4-yl}amine], for which the inhibition at 5 µM stood at 24.5% in the experiment on MDA-MB-361; 5.1% with SK/Lap^R1.0; 38.2% in the experiment with BT474; 17.9% with SK-BR3; 51.5% with MDA-MB-453; 25.6% in the experiment on BT/Lap^R1.0.

The values are drawn from US10023565B2, “N,N′ substituted piperidinamine compounds, and preparation method and usage thereof” (Institute of Pharmacology and Toxicology Academy of …, priority 2013, dated 2018).
